# Reference: patent US20140357487A1, “PLANTS HAVING INCREASED TOLERANCE TO HERBICIDES” (BASF SE, priority 2011, published 2014)
# Key:
# Format in all cases: biochemical
# [1] = molecular target: T1, Hordeum HPPD variant L320H, P321A (Hordeum vulgare, UniProt O48604, L320H/P321A); experiment: HPPD activity assay, Hordeum HPPD mutant L320H, P321A; conditions: normalized on Hordeum wild-type HPPD
# T1 construct: His (N); made in house; host or cells: E. coli BL21 (DE3)
# Method: (§1) HPPD produces homogentisic acid and CO2 from 4-hydroxyphenylpyruvate (4-HPP) and O2. The activity assay for HPPD is based on the analysis of homogentisic acid by reversed phase HPLC.
# (§2) The assay mixture can contain 150 mM potassium phosphate buffer pH 7.0, 50 mM L-ascorbic acid, 1 μM FeSO4 and 7 μg of purified enzyme in a total volume of 1 ml.
# (§3) Inhibitors are dissolved in DMSO (dimethylsulfoxide) to a concentration of 20 mM or 0.5 mM, respectively. From this stock solution serial five-fold dilutions are prepared in DMSO, which are used in the assay. The respective inhibitor solution accounts for 1% of the assay volume. […] After a preincubation of 30 min the reaction is started by adding 4-HPP to a final concentration of 0.1 mM. The reaction is allowed to proceed for 120 min at room temperature. The reaction is stopped by addition of 100 μl of 4.5 M phosphoric acid.
# (§4) Activities are normalized by setting the uninhibited enzyme activity to 100%. IC50 values are calculated using non-linear regression.
# (§5) The assay mixture can contain 150 mM potassium phosphate buffer pH 7.0, 50 mM L-ascorbic acid, 100 μM Catalase (Sigma-Aldrich), 1 μM FeSO4 and 0.2 units of purified HPPD enzyme in a total volume of 505 μl. 1 unit is defined as the amount of enzyme that is required to produce 1 nmol of HGA per minute at 20° C.
# (§6) Inhibitors are dissolved in DMSO (dimethylsulfoxide) to a concentration of 0.5 mM. From this stock solution serial five-fold dilutions are prepared in DMSO, which are used in the assay. The respective inhibitor solution accounts for 1% of the assay volume. […] Activities are normalized by setting the uninhibited enzyme activity to 100%. IC50 values are calculated using non-linear regression.
# (§7) Purified, mutant HPPD enzymes are obtained by the methods described above. Dose response and kinetic measurements are carried out using the described HPPD activity assay. Apparent michaelis constants (Km) and maximal reaction velocities (Vmax) are calculated by non-linear regression with the software GraphPad Prism 5 (GraphPad Software, La Jolla, USA) using a substrate inhibition model.
# (§8) Field performance of the optimized HPPD enzyme, which is used as a herbicide tolerance trait may depend not only on its lack of sensitivity towards HPPD inhibiting herbicides but also on its activity. To assess the potential performance of a herbicide tolerance trait a tolerance index (TI) is calculated using the following formula: […]
# (§9) Easy comparison and ranking of each trait is enabled by normalizing tolerance indexes on Arabidopsis or Hordeum wild-type HPPD.
# [2] = molecular target: T2, Arabidopsis HPPD (SEQ ID: 53) (Arabidopsis thaliana, UniProt P93836); experiment: HPPD activity assay, Arabidopsis wild-type HPPD; set-up: key to Normalized tolerance index TI: tolerance index relative to Arabidopsis wild-type HPPD (= 1); conditions: Arabidopsis HPPD Wildtype; normalized on Arabidopsis wild-type HPPD; Table 15
# T2 construct: His6 (N); made in house; host or cells: E. coli BL21 (DE3)
# T2 sequence (P93836 1-445): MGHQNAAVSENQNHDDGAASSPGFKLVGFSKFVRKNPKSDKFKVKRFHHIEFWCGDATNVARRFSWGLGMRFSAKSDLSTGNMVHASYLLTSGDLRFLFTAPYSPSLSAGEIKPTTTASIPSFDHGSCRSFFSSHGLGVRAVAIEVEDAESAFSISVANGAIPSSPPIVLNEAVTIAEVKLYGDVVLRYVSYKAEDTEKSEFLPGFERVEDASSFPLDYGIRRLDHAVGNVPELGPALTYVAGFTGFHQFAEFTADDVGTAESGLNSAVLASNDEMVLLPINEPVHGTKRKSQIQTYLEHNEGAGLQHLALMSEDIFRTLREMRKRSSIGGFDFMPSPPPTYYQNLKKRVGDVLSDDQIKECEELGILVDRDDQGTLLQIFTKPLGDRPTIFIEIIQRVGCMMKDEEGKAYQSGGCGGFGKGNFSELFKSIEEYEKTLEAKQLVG
# Method: as §1, §2, §3, §4, §5, §6
# (§10) Using methods which are described in the above examples or well known in the art, purified, recombinant wildtype HPPD enzymes are characterized with respect to their kinetic properties and sensitivity towards HPPD inhibiting herbicides. Apparent michaelis constants (Km) and maximal reaction velocities (Vmax) are calculated by non-linear regression with the software GraphPad Prism 5 (GraphPad Software, La Jolla, USA) using a substrate inhibition model.
# as §8, with “of the HPPD enzyme,” for “of the optimized HPPD enzyme,”, “herbicide tolerance trait, may depend” for “herbicide tolerance trait may depend”
# Easy comparison and ranking of each trait is enabled by normalizing tolerance indexes on Arabidopsis wild-type HPPD.
# [3] = molecular target: T3, Hordeum HPPD variant L353M, P321R, L320N (Hordeum vulgare, UniProt O48604, L320N/L353M/P321R); experiment: HPPD activity assay, Hordeum HPPD mutant L353M, P321R, L320N; conditions: normalized on Hordeum wild-type HPPD
# T3 construct: His (N); made in house; host or cells: E. coli BL21 (DE3)
# Method: as §1, §2, §3, §4, §5, §6, §7, §8, §9
# [4] = molecular target: T4, Hordeum HPPD variant L353M, P321R, V212I, L334E (Hordeum vulgare, UniProt O48604, L334E/L353M/P321R/V212I); experiment: HPPD activity assay, Hordeum HPPD mutant L353M, P321R, V212I, L334E; conditions: normalized on Hordeum wild-type HPPD
# T4 construct: His (N); made in house; host or cells: E. coli BL21 (DE3)
# Method: as §1, §2, §3, §4, §5, §6, §7, §8, §9
# [5] = molecular target: T5, Hordeum HPPD variant V212L (Hordeum vulgare, UniProt O48604, A164G/R146V/R147D/R148G/V212L); experiment: HPPD activity assay, Hordeum HPPD mutant V212L; conditions: normalized on Hordeum wild-type HPPD
# T5 construct: His (N); made in house; host or cells: E. coli BL21 (DE3)
# Method: as §1, §2, §3, §4, §5, §6, §7, §8, §9
# [6] = molecular target: T6, Hordeum HPPD variant L320Q (Hordeum vulgare, UniProt O48604, A164G/L320Q/R146V/R147D/R148G); experiment: HPPD activity assay, Hordeum HPPD mutant L320Q; conditions: normalized on Hordeum wild-type HPPD
# T6 construct: His (N); made in house; host or cells: E. coli BL21 (DE3)
# Method: as §1, §2, §3, §4, §5, §6, §7, §8, §9
# Hordeum HPPD (SEQ ID: 2) = molecular target: T7, Hordeum HPPD (SEQ ID: 2) (Hordeum vulgare, UniProt O48604, A164G/R146V/R147D/R148G); experiment: HPPD activity assay, Hordeum wild-type HPPD; conditions: Hordeum HPPD Wildtype; normalized on Hordeum wild-type HPPD
# T7 construct: His (N); made in house; host or cells: E. coli BL21 (DE3)
# Method: as §1, §2, §3, §4, §5, §6, §10
# as §8, with “of the HPPD enzyme,” for “of the optimized HPPD enzyme,”, “herbicide tolerance trait, may depend” for “herbicide tolerance trait may depend”
# [7] = molecular target: T8, Hordeum HPPD variant L334E (Hordeum vulgare, UniProt O48604, A164G/L334E/R146V/R147D/R148G); experiment: HPPD activity assay, Hordeum HPPD mutant L334E; conditions: normalized on Hordeum wild-type HPPD
# T8 construct: His (N); made in house; host or cells: E. coli BL21 (DE3)
# Method: as §1, §2, §3, §4, §5, §6, §7, §8, §9
# [8] = molecular target: T9, Hordeum HPPD variant L353M, P321R, V212I (Hordeum vulgare, UniProt O48604, L353M/P321R/V212I); experiment: HPPD activity assay, Hordeum HPPD mutant L353M, P321R, V212I; conditions: normalized on Hordeum wild-type HPPD
# T9 construct: His (N); made in house; host or cells: E. coli BL21 (DE3)
# Method: as §1, §2, §3, §4, §5, §6, §7, §8, §9
# [9] = molecular target: T10, Hordeum HPPD variant L320N (Hordeum vulgare, UniProt O48604, A164G/L320N/R146V/R147D/R148G); experiment: HPPD activity assay, Hordeum HPPD mutant L320N; conditions: normalized on Hordeum wild-type HPPD
# T10 construct: His (N); made in house; host or cells: E. coli BL21 (DE3)
# Method: as §1, §2, §3, §4, §5, §6, §7, §8, §9
# [10] = molecular target: T11, Hordeum HPPD variant G407C (Hordeum vulgare, UniProt O48604, A164G/G407C/R146V/R147D/R148G); experiment: HPPD activity assay, Hordeum HPPD mutant G407C; conditions: normalized on Hordeum wild-type HPPD
# T11 construct: His (N); made in house; host or cells: E. coli BL21 (DE3)
# Method: as §1, §2, §3, §4, §5, §6, §7, §8, §9
# [11] = molecular target: T12, Arabidopsis HPPD variant M335H, P336A, E363Q (Arabidopsis thaliana, UniProt P93836, E363Q/M335H/P336A); experiment: HPPD activity assay, Arabidopsis HPPD mutant M335H, P336A, E363Q; conditions: normalized on Arabidopsis wild-type HPPD
# T12 construct: PCR-based site directed mutagenesis of pEXP5-NT/TOPO®-AtHPPD is done; His6 (N); made in house; host or cells: E. coli BL21 (DE3)
# Method: as §1, §2, §3, §4, §5
# Inhibitors are dissolved in DMSO (dimethylsulfoxide) to a concentration of 0.5 mM. […] IC50 values are calculated using non-linear regression. […]
# Purified, mutant HPPD enzymes are obtained by the methods described above. […] Apparent michaelis constants (Km) and maximal reaction velocities (Vmax) are calculated by non-linear regression with the software GraphPad Prism 5 (GraphPad Software, La Jolla, USA) using a substrate inhibition model.
# as §8
# T5 sequence (O48604 whole entry R146V/R147D/R148G/A164G/V212L): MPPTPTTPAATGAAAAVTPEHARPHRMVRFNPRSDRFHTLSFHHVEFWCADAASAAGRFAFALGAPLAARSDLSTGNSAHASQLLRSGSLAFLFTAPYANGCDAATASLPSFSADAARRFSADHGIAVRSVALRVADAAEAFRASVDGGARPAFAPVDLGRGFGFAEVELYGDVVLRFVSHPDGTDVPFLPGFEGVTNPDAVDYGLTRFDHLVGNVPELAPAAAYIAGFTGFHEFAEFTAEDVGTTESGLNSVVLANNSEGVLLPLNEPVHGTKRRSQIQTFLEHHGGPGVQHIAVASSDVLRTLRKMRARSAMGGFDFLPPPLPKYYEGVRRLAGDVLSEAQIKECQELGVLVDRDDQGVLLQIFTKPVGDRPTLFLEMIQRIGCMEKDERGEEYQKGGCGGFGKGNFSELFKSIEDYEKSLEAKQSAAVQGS
# T10 sequence (O48604 whole entry R146V/R147D/R148G/A164G/L320N): as the sequence (O48604 whole entry R146V/R147D/R148G/A164G/V212L) above, with L212V, L320N counted along it
# T3 sequence (O48604 whole entry R146V/R147D/R148G/A164G/L320N/P321R/L353M): as the sequence (O48604 whole entry R146V/R147D/R148G/A164G/V212L) above, with L212V, L320N, P321R, L353M counted along it
# T9 sequence (O48604 whole entry R146V/R147D/R148G/A164G/V212I/P321R/L353M): as the sequence (O48604 whole entry R146V/R147D/R148G/A164G/V212L) above, with L212I, P321R, L353M counted along it
# T7 sequence (O48604 whole entry R146V/R147D/R148G/A164G): as the sequence (O48604 whole entry R146V/R147D/R148G/A164G/V212L) above, with L212V counted along it
# T8 sequence (O48604 whole entry R146V/R147D/R148G/A164G/L334E): as the sequence (O48604 whole entry R146V/R147D/R148G/A164G/V212L) above, with L212V, L334E counted along it
# T12 sequence (P93836 whole entry M335H/P336A/E363Q): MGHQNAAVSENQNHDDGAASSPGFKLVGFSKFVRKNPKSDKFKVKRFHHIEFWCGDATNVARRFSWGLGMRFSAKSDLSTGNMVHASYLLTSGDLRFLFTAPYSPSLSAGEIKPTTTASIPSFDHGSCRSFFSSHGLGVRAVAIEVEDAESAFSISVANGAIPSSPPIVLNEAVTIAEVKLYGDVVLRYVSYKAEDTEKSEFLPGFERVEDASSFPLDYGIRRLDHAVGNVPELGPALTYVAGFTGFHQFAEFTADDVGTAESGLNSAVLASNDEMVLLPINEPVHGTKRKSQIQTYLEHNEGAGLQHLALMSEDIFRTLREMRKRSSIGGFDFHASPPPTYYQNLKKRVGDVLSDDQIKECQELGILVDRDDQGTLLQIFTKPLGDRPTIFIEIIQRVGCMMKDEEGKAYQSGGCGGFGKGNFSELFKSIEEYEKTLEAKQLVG
# T6 sequence (O48604 whole entry R146V/R147D/R148G/A164G/L320Q): as the sequence (O48604 whole entry R146V/R147D/R148G/A164G/V212L) above, with L212V, L320Q counted along it
# T1 sequence (O48604 whole entry R146V/R147D/R148G/A164G/L320H/P321A): as the sequence (O48604 whole entry R146V/R147D/R148G/A164G/V212L) above, with L212V, L320H, P321A counted along it
# T4 sequence (O48604 whole entry R146V/R147D/R148G/A164G/V212I/P321R/L334E/L353M): as the sequence (O48604 whole entry R146V/R147D/R148G/A164G/V212L) above, with L212I, P321R, L334E, L353M counted along it
# T11 sequence (O48604 whole entry R146V/R147D/R148G/A164G/G407C): as the sequence (O48604 whole entry R146V/R147D/R148G/A164G/V212L) above, with L212V, G407C counted along it
smiles,measurement,setting,value
"CC1(C)c2cccnc2C(O)=C(c2ccc(Br)cc2C(F)(F)F)S1(=O)=O [Inhibitor 5, 7-[4-bromo-2-(trifluoromethyl)phenyl]-5,5-dimethyl-6,6-dioxo-thiopyrano[4,3-b]pyridin-8-ol]",Normalized tolerance index TI,[1],6.6
same,Normalized tolerance index TI,[2],1
same,Normalized tolerance index TI,[3],3.2
same,Normalized tolerance index TI,[4],3.4
same,Normalized tolerance index TI,[5],1.1
same,Normalized tolerance index TI,[6],2.9
same,Normalized tolerance index TI,Hordeum HPPD (SEQ ID: 2),1
same,Normalized tolerance index TI,[7],2.1
same,Normalized tolerance index TI,[8],3.3
same,Normalized tolerance index TI,[9],2.4
same,Normalized tolerance index TI,[10],4.3
same,Normalized tolerance index TI,[11],0.2
